Reference: ChEMBL document CHEMBL1140142, “Myxochromide B3, a new member of the myxochromide family of secondary metabolites” (J Nat Prod, 2008)
Active and inactive are the calls of the source.

Key:
Type in all cases: functional, organism-based
Aspergillus ruber = test: Antimicrobial activity against Eurotium rubrum at 50 ug/disk by disk diffusion assay
Mycotypha microspora = test: Antimicrobial activity against Mycotypha microspora at 50 ug/disk by disk diffusion assay
[Chlorella] fusca = Antimicrobial activity against Chlorella fusca at 50 ug/disk by disk diffusion assay; conditions: Scenedesmus fuscus
Escherichia coli = test: Antimicrobial activity against Escherichia coli at 50 ug/disk by disk diffusion assay
Priestia megaterium = test: Antimicrobial activity against Bacillus megaterium at 50 ug/disk by disk diffusion assay
Microbotryum violaceum = test: Antimicrobial activity against Microbotryum violaceum at 50 ug/disk by disk diffusion assay

Measured: Activity

C/C=C/C=C/C=C/C=C/C=C/C=C/C=C/C=C/C(=O)N(C)[C@@H]1C(=O)N[C@H](C)C(=O)N[C@@H](CC(C)C)C(=O)N[C@@H](CC(C)C)C(=O)N2CCC[C@H]2C(=O)N[C@@H](C)C(=O)N[C@@H](CCC(N)=O)C(=O)O[C@@H]1C
inactive: all assays above

C/C=C/C=C/C=C/C=C/C=C/C=C/C=C/C=C/C(=O)N(C)[C@@H]1C(=O)N[C@H](C)C(=O)N[C@@H](CC(C)C)C(=O)N2CCC[C@H]2C(=O)N[C@@H](C)C(=O)N[C@@H](CCC(N)=O)C(=O)O[C@@H]1C
inactive: all assays above
